Format in all cases: in vivo, rat
For assay [1], the system named is streptozotocin-induced diabetic rats. In words: Tactile allodynia, 50% withdrawal force to von Frey filaments in experimentally diabetic rats. To be noted: for prevention of tactile allodynia (result in words): 3 months of treatment, diabetic rats, FIG. 2, aspirin 0.3 mg/kg, VIT E 4 g/kg diet, AMG 3 g/kg diet, PJ-34 20 mg/kg daily in drinking water; for animals in which development of tactile allodynia was prevented: SFZ 150 mg/kg BW daily in drinking water, vs non-treated diabetic group. The source says: Streptozotocin-induced diabetic rats (6-8 animals per group) were either left untreated or subjected to treatment with SFZ for up to 9 months. The presence of tactile allodynia was investigated at different time-points. […] Diabetic rats were either left untreated or subjected to treatment with either SFZ, the PARP inhibitor PJ-34, vitamin E (Vit E), or aminoguanidine (AMG) for 3 months. […] Experimentally diabetic rats display tactile allodynia (i.e., the perception of non-painful stimuli as painful), as evidenced by a significant decrease in the 50% withdrawal force (force at which there is a 50% probability of withdrawal) to von Frey filaments (FIGS. 1 and 2). The tactile allodynia was evident as early as 1 month after induction of diabetes and persisted throughout the experimental period (FIG. 1). Importantly, when compared to the non-treated diabetic group, administration of SFZ (150 mg/kg BW, daily, added to drinking water) prevented the development of tactile allodynia in either 50% or 80-100% of the animals after one or three months of treatment, respectively. We compared the effect of SFZ treatment on tactile allodynia in experimentally diabetic rats with those elicited by other salicylates (i.e. aspirin, 0.3 mg/kg), by the anti-oxidants Vitamin E (VIT E; 4 g/kg diet) and by aminoguanidine (AMG; 3 g/kg diet) and by the poly-ADP ribose-polymerase (PARP) inhibitor PJ-34 (20 mg/kg, daily, added to drinking water).

The next assay deals with NO. Description: NO levels (nitrate+nitrite, fluorometric assay kit) in sciatic nerve extracts of diabetic rats. The note with it: sciatic nerves; SFZ 200 mg/Kg BW daily for 9 months; mean ± SD of 3 animals. Here is the method: (§1) NO levels were assayed in extracts from sciatic nerves (epineurium-free) by measuring the stable metabolites of NO (nitrate+nitrite) using a fluorometric assay kit. At the same time, the levels of PGE2 were evaluated by ELISA using a commercial kit (Cayman Chemical). In parallel samples, we also performed an immunoblot analysis to investigate possible changes in the expression of COX-2, one of the enzymes that convert arachidonic acid into PGE2.

In another assay the test system is PGE2. In words: PGE2 levels by ELISA in sciatic nerve extracts of diabetic rats. The note with it: sciatic nerves; SFZ 200 mg/Kg BW daily for 9 months; mean ± SD of 3 animals. Here is the method:
as §1

Another assay deals with adenosine derivatives. In words: Reverse-phase HPLC of adenosine derivatives (inosine, AMP) in sciatic nerve extracts of diabetic rats. To be noted: total sciatic nerves; SFZ 200 mg/Kg BW daily for 9 months; mean ± SEM of 4 animals. The source says:
Administration of either adenosine or of adenosine kinase or adenosine deaminase inhibitors appears to increase nociception thresholds. Two studies have reported that acute administration of either adenosine or adenosine kinase inhibitors can prevent some nerve abnormalities in experimental diabetes. […] However, no studies have investigated the eventual changes in levels of adenosine (or its metabolites) in diabetic nerves. […] Given these precedents, and to determine whether the beneficial effects of SFZ might be mediated through changes in adenosine levels, we measured the levels of this nucleoside in sciatic nerve extracts. Separation of adenosine derivatives was performed by reverse-phase HPLC in […]. This method allows proper separation of ATP, ADP, AMP, adenosine and inosine standards (FIG. 6). Under our experimental conditions we didn't detect an adenosine peak in the sciatic nerve extracts, but we typically observed small peaks corresponding to ATP and ADP and two relatively large peaks corresponding to AMP and inosine (a metabolite obtained by deamination of adenosine) (FIG. 7). The lack of an adenosine peak following fractionation of the sciatic nerve extracts is consistent with metabolism to AMP and/or with the presence of significant adenosine deaminase activity in these samples (and complete degradation to inosine and other breakdown products). […] The analysis of the elution profiles corresponding to sciatic nerve extracts prepared from normal, diabetic and SFZ-treated diabetic rats is summarized in Table 3. We observed that the SFZ-treated diabetic rats display an increase of inosine and a decrease in AMP levels. The design of these experiments could be improved to include the derivatization of samples (and increase the resolution of the ATP and ADP peaks) and/or dual analysis of samples to improve separation of overlapping components.

Another assay concerns p65 NFkB. Description: Western blot of p65 NFkB expression in sciatic nerves of diabetic rats. To be noted: 3-month SFZ-treated diabetic rats, immunoblot, FIG. 3. The source says: FIG. 3 is a Western blot analysis of p65 NFkB and CREB expression in sciatic nerves from individual normal (N), 3-month diabetic (D) and 3-month SFZ-treated diabetic (S) rats. Nerve proteins were subjected to SDS-PAGE and immunoblotting with antisera against p65 NFkB (left panel) or total (CREB) and phosphorylated CREB (p-CREB) (right panel). The ratio between the levels of pCREB and total CREB, in arbitrary units, is shown at the bottom of the respective lanes (numbers underneath the lanes). Blots were also probed using anti-ERK2 to control for protein loading. We carried out preliminary studies to determine the ability of commercial antibodies to detect the p65 subunit of NFkB, phospho-CREB (p-CREB) and CREB in sciatic nerve extracts (FIG. 3), as well as the possible changes in the expression of these transcription factors during experimental diabetes. The signal detected in the immunoblots is likely to reflect the presence of these transcription factors in Schwann cells, fibroblasts and/or endothelial cells. […] We are currently performing electrophoretic mobility shift assays (EMSA) to determine whether the increased immunoreactivity of p65 NFkB in diabetic nerves is paralleled by an increase in NFkB activity. At the same time, we observed a modest decrease in the levels of p-CREB relative to total CREB in diabetic nerves (FIG. 3, right panel). […]

The subject of another assay is COX-2. Description: Immunoblot of COX-2 expression in sciatic nerve extracts of diabetic rats. To be noted: normal vs diabetic vs SFZ-treated diabetic animals, FIG. 5. Here is the method:
as §1

Assay [2] relates to streptozotocin-induced diabetic rats. In words: Mechanical hyperalgesia, Randall and Selitto test in streptozotocin-induced diabetic rats. The note with it: results not shown. The source says:
Experimentally diabetic rats display nociceptive alterations in addition to tactile allodynia.

The values that follow come from patent publication US20070244077A1, “COMPOSITION AND METHOD OF TREATING PERIPHERAL NEUROPATHY” (priority 2006, published 2007).

Consider `N=C(N)NN` [AMG, aminoguanidine], for which the “prevention of tactile allodynia (result in words)” value in assay [1] is given as “partial prevention of tactile allodynia”.

On to `CN(C)CC(=O)Nc1ccc2[nH]c(=O)c3ccccc3c2c1` [PJ-34], for which the “prevention of tactile allodynia (result in words)” value in assay [1] is reported as “partial prevention of tactile allodynia”.

`O=C(O)c1cc(/N=N/c2ccc(S(=O)(=O)Nc3ccccn3)cc2)ccc1O` [SFZ, 5([p(2-pyridylsulfamoyl)phenyl]azo)salicylic acid]: the “prevention of tactile allodynia (result in words)” value in assay [1] was “completely prevents the development of tactile allodynia”. Moreover, the “animals in which development of tactile allodynia was prevented” value in assay [1] (after one month of treatment) worked out at 50%. Besides, the “animals in which development of tactile allodynia was prevented” value in assay [1] (after three months of treatment) is recorded as 80-100%. For the same compound, the “prevention of tactile allodynia over time (result in words)” value in assay [1] (treatment for up to 9 months, different time-points, FIG. 1) was “prevents the development of tactile allodynia”. The compound also returned an NO in the assay with NO of 3.08 ± 0.25 nmoles/mg protein. The same compound had a PGE2 in the assay with PGE2 of 366 ± 220 pmoles/mg protein. Also, in the assay with adenosine derivatives, the AMP is listed as 2.04 ± 0.37 nmoles/mg protein, the Inosine worked out at 5.25 ± 0.64 nmoles/mg protein and the Inosine/AMP is 2.71 ± 1.34. Besides, the “diabetes-induced increase in expression of p65 NFkB in sciatic nerves” value with p65 NFkB is on record as “can be prevented by SFZ treatment”. Also, in the assay on COX-2, the “expression of COX-2 in sciatic nerve” value was “did not observe any significant changes”. Further, the “effect on mechanical withdrawal thresholds (mechanical hyperalgesia)” value in assay [2] is reported as “modest amelioration of the mechanical thresholds that was not statistically significant”.

On to `CC(=O)Oc1ccccc1C(=O)O` [aspirin], for which the “prevention of tactile allodynia (result in words)” value in assay [1] was “partial prevention of tactile allodynia”.

Consider Vitamin E [VIT E], for which, in assay [1], the “prevention of tactile allodynia (result in words)” value is “partial prevention of tactile allodynia”.
